For 62 compounds, melting point results are on record in a melting point compilation (Tetko et al.; mined from patent text by program, amines drawn as free bases though some values may be those of a salt).

SMILES strings stand for the structures.

A word on the melting point: it is the temperature of the solid-liquid transition.

Consider `Nc1nc(-c2ccnc(-c3ccc(N4CCOCC4)cc3)c2)c(-c2ccccn2)s1`, for which the melting point was determined as 276 °C.
`CC(C)(C)OC(=O)N[C@H]1CC[C@H](CCN2CCCC2)CC1` yielded a melting point of 110 °C.
Under `Cn1ncnc1COCc1cccc(-n2cnc3cc(C(F)(F)F)ccc32)c1` stands 121 to 124 °C; under `Cc1cccc2oc3cc(Cl)ccc3c(=O)c12`, 111 to 113 °C.
`FC(F)(F)Oc1ccc2nc(-c3ccccc3)[nH]c2c1` came in with a melting point of 208 to 210 °C.
Under `CC(c1ccc(C(F)(F)F)nc1)S(C)=NC#N` (configuration not stated) stands 78 to 80 °C; under `Cc1cc(C)cc(S(=O)(=O)n2c(CCCCC(=O)O)cc3nc(Cl)ccc32)c1`, 160 °C; under `O=C(NO)c1cnc(NS(=O)(=O)c2ccc(C(=O)Nc3ccc(Cl)c(-c4ccccn4)c3)c(Cl)c2)nc1`, 215 to 220 °C.
To `CCCOc1ccc(S(=O)(=O)Nc2ccc3[nH]ncc3c2)cc1-c1nc2cc(N)c([N+](=O)[O-])cc2c(=O)[nH]1` belongs 261 to 263 °C; to `C#CCNc1nc(N(C2CC(C)(C)N(O)C(C)(C)C2)C2CC(C)(C)N(O)C(C)(C)C2)nc(N(C2CC(C)(C)N(O)C(C)(C)C2)C2CC(C)(C)N(O)C(C)(C)C2)n1`, 249 to 252 °C.
Under `Cc1ccc(-c2ccccc2)cc1Cn1c(C2CC2)nn(C)c1=O` stands 102 °C; under `COc1c(C=Cc2ccc(C=CC3=C(C#N)C(=C(C#N)C#N)OC3(c3ccccc3)C(F)(F)F)s2)cc2c3c1CCCN3CCC2` (configuration not stated), 156 to 160 °C; under `O=c1c(C=NO)c(Cl)nc2n1CCS2`, 148 to 150 °C.
`CCS(=O)(=O)C1=C(C(=O)c2ccc(S(C)(=O)=O)cc2Cl)C(=O)CCC1`: the melting point was in the range of 157 to 161 °C.
Under `OCCC=Cc1ccc(-c2ccccc2)cc1` stands 142 °C.
To `Cc1c(-c2ccccc2)nn(C)c1C(=O)O` belongs 161 to 163 °C; to `COc1ccc(-c2cc(Cl)c3cc(O)c(Br)cc3c2)cc1`, 138 to 139 °C.
`CN(C)c1ccc2c(c1)NC(=O)CC2` came in with a melting point of 154 to 156 °C.
Under `Nc1cccc(-c2ccc(CCN3CCN(C(=O)C4CCCC4)CC3)cc2)n1` stands 185 to 187 °C; under `CCOC(=O)CNC(=O)C(C)(C(C)C)C(C)C`, 74.5 to 75.5 °C; under `CC(C)(C)OC(=O)[C@H](Cc1ccc(O)cc1)NC(=O)C12CC3CC(C(=O)N1Cc1ccccc1)C2C3` (some centres not stated), 298 to 300 °C.
As to `CCC(O)(c1ccc(OCCN(C(C)C)C(C)C)cc1)c1ccccc1OC` (configuration not stated), the melting point was 46 to 47 °C.
Under `CCOC(=O)c1cc2c(Cl)ccc(N(C)S(=O)(=O)c3cccs3)c2n1COC` stands 137 to 138 °C; under `Nc1cc(Oc2ccc3c(C(=O)O)cccc3c2)ncn1`, 288 to 290 °C; under `Cc1[nH]c2ccccc2c1CCCN1CCC(c2noc3ccccc23)CC1`, 110 to 112 °C.
Under `Cc1ccc(C(=O)O)c(OC(=O)C=Cc2ccccc2)c1` stands 156 to 157 °C.
For the compound `CCOC(=O)CCC=Cc1ccc2ccccc2c1O`, the melting point lay in the range of 63 to 64 °C.
Under `Cc1cc2c(c(C(O)c3cn(C(c4ccccc4)(c4ccccc4)c4ccccc4)cn3)c1)OC(C)(C)OC2` (configuration not stated) stands 205 to 215 °C; under `CCCCCCCCCCCCCCOc1ccc(CBr)cc1CBr`, 62.9 °C.
To `C(=C\c1nc(COc2ccc(CCCn3ccnn3)cc2)co1)/c1ccccc1` belongs 142 to 143 °C; to `O=C(NC/C=C\COc1cc(CN2CCCCC2)ccn1)NC1CCCCC1`, 131 to 132 °C; to `CC(C)(O)Cc1cc(O)ccc1Br`, 139 to 141 °C.
Under `CC(=O)N(C)c1cccc(-c2nc(=O)c3ccccc3s2)n1` stands 218 to 220 °C.
Compound `Fc1ccccc1-c1nc(Cl)nc2ccccc12` came in with a melting point of 141 °C.
Consider `CCCCc1nc(Cl)c(Cl)n1Cc1ccc(-n2cccc2C(=O)O)cc1`, for which the melting point fell in the range of 181 to 182 °C.
Compound `CSc1cc(=O)c2cc(OC(=O)OC(C)(C)C)c(OC(=O)OC(C)(C)C)cc2s1` came in with a melting point of 110 to 111 °C.
To `CCCCCCCCCCS(=O)(=O)NC(=O)c1cnc(C(=O)O)c(OC)c1` belongs 145 °C; to `Cc1ccc(Nc2nc(-c3ccccn3)cs2)nc1`, 184 to 190 °C.
In turn, `COc1cc2ncnc(N3CCN(C(=O)Nc4ccc(C(=O)C(F)(F)F)cc4)CC3)c2cc1OC` had a melting point of 144 to 146 °C.
To `Cn1cc(C2(c3c4n(c5ccccc35)CCCCC4)CC(=O)NC2=O)c2ccccc21` (configuration not stated) belongs over 300 °C; to `O=C(O)c1ccc(N2C(=O)CCC2(CO)CO)cc1`, 195 to 197 °C.
For the compound `COc1cccc(-c2nn(-c3ccccc3)c(-c3cccc(OC)c3)c2CC(=O)O)c1`, the melting point is 129 to 131 °C.
To `COc1cc(OC)nc(Sc2nccc(-c3cccc(Cl)c3)c2C(=O)NS(C)(=O)=O)n1` belongs 54 to 58 °C; to `CC(C)(C)OC(=O)[C@@H]1CCCN1C(=O)C1CCC1SC(=O)c1ccccc1` (some centres not stated), 102 to 103 °C.
For the compound `CC1(C)CC(N(C=O)C2CCCCC2)CC(C)(C)N1`, the melting point was 105 °C.
On to `COc1ccc(N=Nc2ccc(O)c(C(=O)Nc3ccc(OC)c(-c4n[nH]c5cc(C)nn45)c3)c2)cc1`, for which the melting point was in the range of 295 to 296 °C.
Under `CC(O)c1cc2c(s1)C(=O)c1c(C(C)O)csc1C2=O` (configuration not stated) stands 218 to 219 °C; under `CCOC(=O)C1(C(=O)OCC)CC(c2ccc(Cl)cc2[N+](=O)[O-])=CN1C(C)=O`, 90 to 95 °C.
To `CCCCCCCCC(C)OC(=O)NC(C)(C=O)CCc1c[nH]c2ccccc12` (configuration not stated) belongs 178 to 179 °C; to `Cc1nn(C2=C(F)CC(F)(C#N)C=C2)c(=O)[nH]c1=O` (configuration not stated), 214 °C; to `COc1ccc(CC(=O)CCCCCBr)cc1`, 41 to 43 °C.
To `O=C(Nc1cccc(CN2CCCCC2)c1)C1=Cc2cc(-c3ccccc3)ccc2CC1` belongs 152 to 153 °C; to `CCOC(=O)c1cc2n(C)c3ccc(F)cc3c(=O)n2n1`, 288 to 290 °C.
Regarding `Cn1cnc2c1c(=O)n(CCCO)c(=O)n2C`, the melting point fell in the range of 139 to 140 °C.
To `Cc1nc2n(C)ccn2c(=O)c1CCCl` belongs 198 °C; to `Cc1ccc(C(=O)NCCC(=O)OCc2ccccc2)c(NC(=O)C(CCCNC(=N)N[N+](=O)[O-])NC(=O)OCc2ccccc2)c1` (configuration not stated), 154 to 156 °C.
Under `C(=C\c1nc(COc2ccc(CCCn3nccn3)cc2)co1)/c1ccccc1` stands 103 to 104 °C; under `CCN(CC)CCCOc1ccc(NC(=O)c2ccccc2)cc1NC(=O)c1ccccc1`, 139 to 140 °C; under `Cc1ccccc1CN1CCN(C)CC1C1=NCCN1` (configuration not stated), 156 to 158 °C.
To `CS(=O)(=O)N1CC2(COc3cc4c(cc32)OCO4)c2ccccc21` (configuration not stated) belongs 215 to 217 °C; to `CC(C)CC1CCCCCc2c1oc(=O)c(C(c1ccccc1)C1CC1)c2O` (configuration not stated), 86 to 92 °C; to `COc1ccc2c(c1)nnc1nnc(C)n12`, 259 to 261 °C.
